Results as given in article PMC6311682, “Design, Synthesis, and Biological Evaluation of 2-Nitroimidazopyrazin-one/-es with Antitubercular and Antiparasitic Activity” (Journal of Medicinal Chemistry, 2018).
Several values for one entry are separate records, joined by “and”; a condition that tells them apart may be missing. Identical values can stand only once.

Test system: HEK293 cells
Assay: not given
Design: method as in Jarrad et al. 2
Conditions: ATCC CRL-1573; ref Jarrad et al. 2; read-out: cytotoxicity CC50 HEK 293; cited from earlier work

| Structure (SMILES) | CC50 |
| --- | --- |
| NC(=O)c1ncc([N+](=O)[O-])[nH]1 [16a] | > 100 µM |
| O=C(NCc1ccc(OC(F)(F)F)cc1)c1ncc([N+](=O)[O-])[nH]1 [16c] | 93 µM |
| O=C(NO)c1nc([N+](=O)[O-])cn1Cc1ccc(OC(F)(F)F)cc1 [28j] | 36 µM |

Test system: M. tuberculosis
Assay: not given
Conditions: cited from earlier work

| Structure (SMILES) | activity against M. tuberculosis |
| --- | --- |
| O=[N+]([O-])c1cn2c(n1)OC[C@H](OCc1ccc(OC(F)(F)F)cc1)C2 [(R)-PA-824 (8), (R)-PA-824] | inactive |

Test system: not listed separately
Assay: in vitro
Conditions: human, Caco-2, pH 7.4

| Structure (SMILES) | Papp A→B at 2 h, 2 µM |
| --- | --- |
| CC(Cc1ccc(O)cc1)NCC(O)c1cc(O)cc(O)c1 (stereo not shown) [fenoterol] | 0.27 ×10⁻⁶ cm/s |

Same assay, conditions: human, Caco-2, pH 7.4, mean recovery (%) A to B

| Structure (SMILES) | recovery at 2 h, 2 µM |
| --- | --- |
| CC(Cc1ccc(O)cc1)NCC(O)c1cc(O)cc(O)c1 (stereo not shown) [fenoterol] | 92% |

Test system: M. tuberculosis (H37Rv)
Assay: M. tuberculosis H37Rv resazurin reduction microplate MIC assay, hypoxic conditions (0.1% oxygen)
Assay type: cell-based, Mycobacterium tuberculosis
Conditions: Mycobacterium tuberculosis; H37Rv, hypoxia (0.1% oxygen); read-out: antibacterial MIC M. tuberculosis hypoxia

| Structure (SMILES) | MIC |
| --- | --- |
| NC(=O)c1ncc([N+](=O)[O-])[nH]1 [16a] | > 32 µg/mL |

Same assay, conditions: at 32 μg/mL

| Structure (SMILES) | M. tuberculosis hypoxia % I |
| --- | --- |
| O=C(NCc1ccc(OC(F)(F)F)cc1)c1ncc([N+](=O)[O-])[nH]1 [16c] | 75% and 60–75% |
| O=C(NO)c1nc([N+](=O)[O-])cn1Cc1ccc(OC(F)(F)F)cc1 [28j] | 60% and 60–75% |

Test system: HepG2 cells
Assay: not given
Design: method as in Jarrad et al. 2
Conditions: ATCC HB-8065; ref Jarrad et al. 2; read-out: cytotoxicity CC50 HepG2; cited from earlier work

| Structure (SMILES) | CC50 |
| --- | --- |
| NC(=O)c1ncc([N+](=O)[O-])[nH]1 [16a] | > 100 µM |
| O=C(NCc1ccc(OC(F)(F)F)cc1)c1ncc([N+](=O)[O-])[nH]1 [16c] | 104 µM |
| O=C(NO)c1nc([N+](=O)[O-])cn1Cc1ccc(OC(F)(F)F)cc1 [28j] | > 100 µM |

Test system: M. tuberculosis (H37Rv)
Assay: M. tuberculosis H37Rv resazurin reduction microplate MIC assay, normoxic conditions
Assay type: cell-based
Conditions: Mycobacterium tuberculosis, normoxia, read-out: antibacterial MIC M. tuberculosis normoxia

| Structure (SMILES) | MIC |
| --- | --- |
| NC(=O)c1ncc([N+](=O)[O-])[nH]1 [16a] | > 32 µg/mL |
